In general, Ki refers to the equilibrium dissociation constant of an inhibitor or competing ligand from its target.

Assay [1] deals with T1, isolated recombinant JAK1 kinase domain (Homo sapiens, UniProt P23458).
T1 construct: isolated recombinant JAK1 and JAK2 kinase domain
Put plainly: JAK enzyme assay, JAK1 kinase domain (Caliper LabChip). The format is biochemical. To be noted: 1.5 nM JAK1, ATP 25 μM, Morrison tight binding model. As for the experimental part: (§1) JAK Enzyme Assays were Carried Out as Follows:
(§2) The activity of the isolated recombinant JAK1 and JAK2 kinase domain was measured by monitoring phosphorylation of a peptide derived from JAK3 (Val-Ala-Leu-Val-Asp-Gly-Tyr-Phe-Arg-Leu-Thr-Thr, fluorescently labeled on the N-terminus with 5-carboxyfluorescein) using the Caliper LabChip® technology (Caliper Life Sciences, Hopkinton, Mass.). […] Reactions were incubated at 22 °C in 384-well polypropylene microtiter plates for 30 minutes and then stopped by addition of 25 μL of an EDTA containing solution (100 mM HEPES buffer (pH 7.2), 0.015% Brij-35, 150 mM EDTA), resulting in a final EDTA concentration of 50 mM. After termination of the kinase reaction, the proportion of phosphorylated product was determined as a fraction of total peptide substrate using the Caliper LabChip® 3000 according to the manufacturer's specifications. Ki values were then determined using the Morrison tight binding model (Morrison, J. F., Biochim. Biophys. Acta. 185:269-296 (1969); William, J. W. and Morrison, J. F., Meth. Enzymol., 63:437-467 (1979)) modified for ATP-competitive inhibition [Ki=Ki,app/(1+[ATP]/Km,app)].

Assay [2] addresses T2, isolated recombinant JAK2 kinase domain (Homo sapiens, UniProt O60674).
T2 construct: isolated recombinant JAK1 and JAK2 kinase domain
The assay can be described thus: JAK enzyme assay, JAK2 kinase domain (Caliper LabChip). The assay is classed as biochemical. Particulars: 0.2 nM JAK2, ATP 25 μM, Morrison tight binding model. As for the experimental part:
as §1, §2

T2 sequence (O60674 849-1124 limits assumed): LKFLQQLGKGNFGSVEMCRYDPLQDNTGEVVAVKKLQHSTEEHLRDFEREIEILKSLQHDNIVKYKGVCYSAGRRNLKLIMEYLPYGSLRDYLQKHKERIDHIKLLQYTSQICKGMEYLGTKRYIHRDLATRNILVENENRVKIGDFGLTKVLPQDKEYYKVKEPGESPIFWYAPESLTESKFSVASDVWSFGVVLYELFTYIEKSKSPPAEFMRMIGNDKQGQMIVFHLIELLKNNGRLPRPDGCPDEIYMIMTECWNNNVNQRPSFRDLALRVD
T1 sequence (P23458 875-1153 limits assumed): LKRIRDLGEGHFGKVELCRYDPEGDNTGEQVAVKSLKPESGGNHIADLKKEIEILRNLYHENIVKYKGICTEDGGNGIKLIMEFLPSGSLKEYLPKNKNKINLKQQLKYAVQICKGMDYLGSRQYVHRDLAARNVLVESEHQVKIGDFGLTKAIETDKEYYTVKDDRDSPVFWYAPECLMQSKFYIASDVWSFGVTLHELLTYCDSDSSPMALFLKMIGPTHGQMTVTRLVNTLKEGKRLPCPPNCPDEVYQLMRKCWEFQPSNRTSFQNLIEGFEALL

For `CCc1cnn(C2(CC#N)CN(c3cccn4nc(Nc5cn[nH]c5)nc34)C2)c1` [Example 2, 2-[3-(4-ethyl-1H-pyrazol-1-yl)-1-[2-[(1H-pyrazol-4-yl)amino]-[1,2,4]triazolo[1,5-a]pyridin-8-yl]azetidin-3-yl]acetonitrile], the values for the Ki in assay [1] and in assay [2] were 17.5 nM and 32.8 nM, respectively.
Consider `CCc1cnn(C2(CC#N)CN(c3cccn4nc(Nc5cnn(CCCO)c5)nc34)C2)c1` [Example 3, 2-[3-(4-ethyl-1H-pyrazol-1-yl)-1-(2-[[1-(3-hydroxypropyl)-1H-pyrazol-4-yl]amino]-[1,2,4]triazolo[1,5-a]pyridin-8-yl)azetidin-3-yl]acetonitrile], for which the Ki in assay [1] was determined as 40.2 nM; in assay [2], 64 nM.
As to `CN1CCN(C(=O)Cn2cc(Nc3nc4c(N5CC(CC#N)(n6cc(I)cn6)C5)cccn4n3)cn2)CC1` [Example 89, 2-[3-(4-iodopyrazol-1-yl)-1-[2-[[1-[2-(4-methylpiperazin-1-yl)-2-oxo-ethyl]pyrazol-4-yl]amino]-[1,2,4]triazolo[1,5-a]pyridin-8-yl]azetidin-3-yl]acetonitrile], the values for the Ki in assay [1] and in assay [2] were 6.4 nM and 18.8 nM, respectively.
With `CN1CCN(C(=O)Cn2cc(Nc3nc4c(N5CC(CC#N)(c6ccc(Cl)cc6)C5)cccn4n3)cn2)CC1` [Example 7, 2-[3-(4-chlorophenyl)-1-[2-[[1-[2-(4-methylpiperazin-1-yl)-2-oxo-ethyl]pyrazol-4-yl]amino]-[1,2,4]triazolo[1,5-a]pyridin-8-yl]azetidin-3-yl]acetonitrile], the figures for the Ki in assay [1] and in assay [2] were 37.2 nM and 50.4 nM, respectively.
On the same counts, the results for `CCc1cnn(C2(CC#N)CN(c3nccn4nc(Nc5cn[nH]c5)nc34)C2)c1` [Example 153, 2-(1-(2-((1H-pyrazol-4-yl)amino)-[1,2,4]triazolo[1,5-a]pyrazin-8-yl)-3-(4-ethyl-1H-pyrazol-1-yl)azetidin-3-yl)acetonitrile] are 9 nM and 15.5 nM.
The matching figures for `CN1CCN(C(=O)Cn2cc(Nc3nc4c(N5CC(CC#N)(n6cc(Br)cn6)C5)cccn4n3)cn2)CC1` [Example 6, 2-[3-(4-bromo-1H-pyrazol-1-yl)-1-[2-([1-[2-(4-methylpiperazin-1-yl)-2-oxoethyl]-1H-pyrazol-4-yl]amino)-[1,2,4]triazolo[1,5-a]pyridin-8-yl]azetidin-3-yl]acetonitrile]: 9.5 nM and 15.7 nM.
